Experimental data published in patent US5498522A, “Methods for the use of spermidine/spermine N^1 -acetyltransferase as a prognostic indicator and/or a tumor response marker” (priority 1993, dated 1996).
Entries after “also recorded” stand apart in the source; their conditions may differ.

How the values were obtained:
[1] = tested on: spermidine/spermine N^1 -acetyltransferase (SSAT); test: SSAT induction in cultured human tumor cell lines in-vitro; format: cell-based; conditions: for SSAT induction (FIG. 5, words) / SSAT: 48 hours
Description: To illustrate this embodiment, three polyamine analogs comprising bis-ethyl spermine analogs were used to treat MALME-3 human melanoma cells cultured in-vitro, and MALME-3 cells implanted as human xenografts in the athymic nude mouse model (Bernacki et al., 1992, supra). For in-vitro treatment, MALME-3 cells were maintained as a monolayer culture growing in RPMI 1640 containing 2% N-2-hydroxy-piperazine-N^1 -ethanesulfonic acid/3-N-morpholinopropanesulfonic acid pH 7.4 as a buffer, 1 mM aminoguanidine as an inhibitor of serum oxidase, and 10% of a semidefined serum substitute. Cells were seeded at 2×10^5 cells/T-75 flask and incubated 24 hours before treatment with analogues. Following treatment with 10 μM of the respective bis-ethyl spermine analog, control and treated cultured cells were trypsinized, washed, and suspended for enzyme assays and cell number determinations.
In accordance with the above methods for assaying the induction of SSAT levels in tumor cell lines treated in-vitro and xenografts treated in-vivo, the induction pattern also correlates fairly well amongst different clonal lines of a particular tumor type. This can be illustrated with melanoma clonal lines LOX, SH-1, PANUT-3, and MALME-3.
In accordance with the above methods for assaying the induction of SSAT levels in tumor cell lines treated in-vitro and xenografts treated in-vivo, the induction pattern also correlates fairly well amongst carcinomas of solid organs. This can be illustrated with malignant clonal lines A121, A549, and HT29.
As mentioned previously, cells from malignant solid tumor respond to polyamine analog therapy heterotypically. SSAT induction and antitumor response may vary not only among the solid tumor tissue type, but also with the clonal line of tumor of a particular solid tissue type. However, a correlation between the level of induction of SSAT and the potency of antitumor response has been observed in tumors of a particular solid tissue type. For example, seven human melanoma cell lines were assayed in-vitro for their response, as determined by cell growth and level of SSAT induction, to 10 μM BESPM at 48 hours post-treatment. As summarized in FIG. 5, growth among the cell lines decreases as SSAT induction increases.
To illustrate this embodiment, LOX and MALME-3 cell cultures were treated for 48 hours with 10 μm BESPM. The cells from each culture were harvested and assayed for SSAT activity. Media samples were prepared by treating the samples with 50% trichloroacetic acid to give a final concentration of 10% and then centrifuged at 15,000×g for 10 minutes. The supernatant was then filtered through a 0.22-μm filter, extracted with several volumes of ether, lyophilized, and resuspended in 10% trichloroacetic acid. N^1 -acetylspermidine levels of cells and media samples were then measured by use of high-pressure liquid chromatography. […] Similarly, N^1 -acetylspermidine levels from MALME-3 control cells, media from control cell cultures, and treated MALME-3 cells contained minimal levels of N^1 -acetylspermidine.

[2] = tested on: spermidine/spermine N^1 -acetyltransferase (SSAT); conditions: cited from earlier work
[3] = tested on: S-adenosylmethionine decarboxylase (SAMDC); conditions: in-vitro; cited from earlier work
[4] = tested on: MALME-3 human melanoma xenografts; test: antitumor response against MALME-3 human melanoma xenografts in mice; format: in vivo; conditions: for suppression of tumor growth after cessation of treatment: every 8 hours for 6 days, most effective dose; for % T/C (tumor growth suppression) / Regrowth Delay (time for median tumor volume to reach 200 mm^3): maximally tolerated dose
Description: b. Anticancer effects of polyamine analog therapy are determined by assessing the antiproliferative activity on the treated solid tumor by measuring one or more responses including tumor growth suppression, tumor regression, or repression of regrowth. Tumors were measured in three dimensions and tumor volume was calculated according to the formula:
[…] where 1 represents length; w--width; and h--height. Tumor sizes were monitored 2 times/week until the median volume (V=0.4(a^2 ×b) where a is the smaller of the two perpendicular tumor diameters). As an indication of drug toxicity, animal weights were also recorded at the time of tumor volume measurement. Statistical analyses were performed on mouse tumor size and weight parameters by using the Mann-Whitney test.
Tumor growth suppression was measured by plotting the mean tumor volume versus the number of days post-inoculation with polyamine analog (growth curve analyses). Suppression is determined by comparison with the growth of untreated tumors (%T/C). More specifically,: %T/C is (treated tumor volume minus pretreatment volume) divided by (control tumor volume minus pretreatment volume)×100. Typically this is measured either when the control tumor volume reaches 1000 mm^3, or at the last day of treatment.
Tumor regression is measured as a percentage representing the average percentage of decrease in tumor volume from the largest pretreatment volume value.
Repression of regrowth is represented as regrowth delay, determined as the number of days following cessation of treatment when median group tumor volume exceeds 200 mm^3 (an arbitrary indication of regrowth which was determined statistically).
For the in-vivo treatment, 10^7 cultured MALME-3 melanoma cells were injected subcutaneously into 20 gram female nude athymic mice. After four in-vivo passages, tumor was removed and 40-50 mm^3 fragments were selected for implantation into mice via subcutaneous trocar implantation. Mice developing palpable tumors of a similar size were divided into different treatment groups comprising mice per group. Following treatment of the mice with a dosage approaching the maximally tolerated dose of the respective bis-ethyl spermine analog, the tumor cells comprising the human xenograft were removed and assayed for SSAT induction. […] Also indicated in Table 1, the level of SSAT induction in-vivo by BESPM was less than 20 fold that of BEHSPM, and the level of SSAT induction in-vivo by BENSPM was about 6 fold greater than that of BESPM. Thus, a conclusion from the results depicted in Table 1 is the rank order in effectiveness of the his-ethyl spermine analogs to induce SSAT levels in-vitro correlated well with their effectiveness to induce SSAT levels in-vivo.
The in-vivo antitumor activities of BESPM, BEHSPM, and BENSPM, were compared against various human xenografts in nude athymic mice. Cultured human tumor cells were first passaged several times in female HSD nude athymic mice. Fragments of resultant tumor were implanted into mice via subcutaneous trocar implantation. Mice of different treatment groups were treated with one or more of the three bis-ethyl spermine analogs BESPM, BEHSPM, and BENSPM. Anti-proliferative activity was monitored by antitumor responses including tumor growth suppression, tumor regression, or repression of regrowth.
As illustrated in Table 1 with MALME-3 human melanoma cells, the rank order effectiveness of three polyamine analogs in inducing SSAT levels both in-vitro and in-vivo were BENSPM>BESPM>BEHSPM, with substantial differences in induction between them. The same three polyamine analogs were analyzed for their effectiveness in inducing a potent antitumor response in-vivo. Mice developing palpable tumors of a similar size were divided into different treatment groups comprising 5 mice per treatment group, and 10 control mice per treatment group. […]

[5] = tested on: ornithine decarboxylase (ODC); conditions: in-vitro; cited from earlier work
[6] = tested on: human tumor xenografts; test: antitumor efficacy in-vivo (general statement); conditions: compared to other bis-ethyl spermine analogs
[7] = MALME-3 xenograft, 40 mg/kg every 8 hours for 5 days

CCNCCCNCCCCNCCCNCC [BESPM, N^1,N^12-bis(ethyl)spermine]
SSAT induction (FIG. 5, words) ([1]; LOX and SH-1, 10 μM BESPM): lowest induction of SSAT levels | SSAT ([1]; LOX, 10 μM BESPM): 120 pmol/mg/min | SSAT induction in-vitro ([1]; LOX, 10 μm BESPM): 171 pmol/min/10^6 cells | SSAT ([1]; MALME-3, 10 μM BESPM): 12,405 pmol/mg/min | SSAT induction in-vitro ([1]; MALME-3, 10 μm BESPM (Table 2)): 19,520 pmol/min/10^6 cells | SSAT induction (FIG. 5, words) ([1]; MALME-3 and Ebey, 10 μM BESPM): highest SSAT activity | SSAT induction in-vitro relative to BEHSPM ([1]; MALME-3 cells, 10 μM): about 10 fold | SSAT induction in-vitro ([1]; PANUT-3, 10 μm BESPM): 10,343 pmol/min/10^6 cells | SSAT induction in-vitro ([1]; SH-1, 10 μm BESPM): 1100 pmol/min/10^6 cells | SSAT levels after treatment ([2]; MALME-3, in-vitro): extreme induction of SSAT levels | SAMDC suppression [3]: rapidly suppress ODC and SAMDC; also recorded: similarly suppress ornithine and S-adenosyl-methionine decarboxylase levels | suppression of tumor growth after cessation of treatment ([4]; MALME-3 xenograft): 30 days | % T/C (tumor growth suppression) ([4]; MALME-3 xenograft): 34% | Regrowth Delay (time for median tumor volume to reach 200 mm^3) ([4]; MALME-3 xenograft): 27 days | antitumor activity ([4]; MALME-3 xenografts): significant antitumor activity | ODC suppression [5]: rapidly suppress ODC and SAMDC; also recorded: similarly suppress ornithine and S-adenosyl-methionine decarboxylase levels

CCNCCCNCCCNCCCNCC [BENSPM, N^1,N^11 -bis(ethyl)norspermine]
SSAT induction in-vitro ([1]; A121 ovarian, 10 μm BENSPM): 2,700 pmol/min/10^6 cells | SSAT induction in-vitro ([1]; A549 lung, 10 μm BENSPM): 22,755 pmol/min/10^6 cells | SSAT induction in-vitro ([1]; HT29 colon, 10 μm BENSPM): 3,640 pmol/min/10^6 cells | SSAT induction in-vitro relative to BESPM ([1]; MALME-3 cells, 10 μM): 5 to 6 fold | antitumor efficacy / activity, relative [6]: most potent antitumor efficacy; also recorded: most potent antitumor activity | SSAT induction in-vitro, PANUT-3 versus MALME-3 ([2]; BENSPM): induced to greater levels in PANUT-3 than in MALME-3 | SAMDC suppression [3]: similarly suppress ornithine and S-adenosyl-methionine decarboxylase levels | % T/C at 1 g ([4]; MALME-3M, BENSPM at 80 mg/kg): < 0% | Tumor Regression ([4]; MALME-3M, BENSPM at 80 mg/kg): Present | Regrowth Delay ([4]; MALME-3M, BENSPM at 80 mg/kg, dt 13 days): > 4.8 × dt | No Regrowth ([4]; MALME-3M, BENSPM at 80 mg/kg, for duration of experiment): 2/5 | lack of regrowth (FIG. 6) [4, 7]: two mice examined of the remaining five mice treated | regrowth delay (FIG. 6) [4, 7]: significant regrowth delay | tumor regression (FIG. 6) [4, 7]: showed tumor regression | suppression of tumor growth after cessation of treatment ([4]; MALME-3 xenograft): 40 days | % T/C (tumor growth suppression) ([4]; MALME-3 xenograft): 10% | Regrowth Delay (time for median tumor volume to reach 200 mm^3) ([4]; MALME-3 xenograft): 37 days | antitumor activity ([4]; MALME-3 xenografts): most effective of the three | apparent curing of xenografts on retreatment ([4]; MALME-3 xenografts, retreatment 2 weeks later): about 20% | ODC suppression [5]: similarly suppress ornithine and S-adenosyl-methionine decarboxylase levels

CCNCCCCNCCCCNCCCCNCC [BEHSPM, N^1,N^14 -bis(ethyl)homospermine]
SSAT induction in-vitro ([1]; MALME-3 cells, 10 μM analog): 1108 pmol/min/10^6 cells | SAMDC suppression [3]: similarly suppress ornithine and S-adenosyl-methionine decarboxylase levels | suppression of tumor growth after cessation of treatment ([4]; MALME-3 xenograft): 18 days | % T/C (tumor growth suppression) ([4]; MALME-3 xenograft): 43% | Regrowth Delay (time for median tumor volume to reach 200 mm^3) ([4]; MALME-3 xenograft): 14 days | antitumor activity ([4]; MALME-3 xenografts): less effective than BESPM | ODC suppression [5]: similarly suppress ornithine and S-adenosyl-methionine decarboxylase levels
